Laboratory results reported in US11352352B2, “Aminopyrimidine compound, preparation method therefor and use thereof” (BEIJING ADAMADLE BIOTECHNOLOGY LIMITED LIABILITY COMPANY, priority 2017, dated 2022).
pIC50: −log10 of the molar value.

What was measured:
Assay in all cases: Cell proliferation inhibition experiment, CellTiter-Glo (CTG) method
Assay type in all cases: cell-based
NCI-H1975 = conditions: for pIC50: Homo sapiens, NCI-H1975, 72 h, NCI-H1975 cells, CTG, 3 days; for A-431/NCI-H1975 Selectivity: ratio of A-431 IC50 to NCI-H1975 IC50
How it was run: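 NCI-H1975 cells with viability above 90% by trypan blue were seeded at 90 μL per well in black 96-well plates and incubated overnight at 37° C., 5% CO2. Compounds were added at nine concentrations in triplicate, and viability was measured with CellTiter-Glo luminescence on EnVision. IC50 came from non-linear S-curve fitting in GraphPad Prism 5.0.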

PC-9 = conditions: Homo sapiens, PC-9, 72 h, PC-9 cells, 3 days
How it was run: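 Cells in log-phase growth (viability above 90% by trypan blue) were seeded at 90 μL per well in black-walled, clear-bottom 96-well plates and incubated overnight at 37° C., 5% CO2. A T0 plate was read the next day. Test compounds were added at nine concentrations in triplicate with a solvent control. Viability was measured by CellTiter-Glo luminescence on EnVision, and IC50 came from non-linear S-curve fitting in GraphPad Prism 5.0.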

A-431 = conditions: Homo sapiens, A-431, 72 h, A-431 cells, 3 days
How it was run: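 Log-phase cells (viability >90%) were plated and incubated overnight, then dosed in triplicate across nine 3-fold concentrations. The top dose was 30 μM on A-431 and 1.111 μM on NCI-H1975 and PC-9. Survival after 3 days was measured by CellTiter-Glo and IC50 derived by non-linear regression.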

SMILES | pIC50 (NCI-H1975) | A-431/NCI-H1975 Selectivity (NCI-H1975) | pIC50 (PC-9) | pIC50 (A-431)
C=CC(=O)Nc1cc(Nc2cc(-c3ccc4cnn(C)c4c3)ncn2)c(OC)cc1N(C)C1CCN(C)C1 (stereo not drawn) [compound 74] | 7.50 | 36.0 | 7.97 | 5.94
C=CC(=O)Nc1cc(Nc2cc(-c3ccc4c(cnn4C)c3)ncn2)c(OC)cc1N1CCN(C(=O)CN(C)C)CC1 [compound 135] | 7.81 | – | 7.75 | 6.12
C=CC(=O)Nc1cc(Nc2cc(-c3ccc4c(cnn4C(C)C)c3)ncn2)c(OC)cc1N1CCC(N2CCN(C)CC2)CC1 [compound 84] | 7.46 | 28.7 | 7.56 | 6.01
C=CC(=O)Nc1cc(Nc2nccc(-c3ccc4c(cnn4C)c3)n2)c(OC)cc1N1CCN(C2CCOCC2)CC1 [compound 235] | 7.03 | 25.5 | 7.60 | 5.62
C=CC(=O)Nc1cc(Nc2cc(-c3ccc4c(cnn4C)c3)ncn2)c(OC)cc1N1CCN(C(C)=O)CC1 [compound 20] | 7.34 | 33.9 | 7.60 | 5.81
C=CC(=O)Nc1cc(Nc2nccc(-c3ccc4c(cnn4C)c3)n2)c(OC)cc1N(C)CCN(C)CC [compound 241] | 7.64 | 45.3 | 6.68 | 5.98
C=CC(=O)Nc1cc(Nc2cc(-c3ccc4c(cnn4C)c3)ncn2)c(OC)cc1N1CCC(N2CCC(OC)CC2)CC1 [compound 204] | 7.80 | 56.7 | 7.80 | 6.05
C=CC(=O)Nc1cc(Nc2cc(-c3ccc4c(cnn4C)c3)ncn2)c(OC)cc1N(C)CCN1C[C@@H](C)N(C)[C@@H](C)C1 [compound 125] | 7.49 | 49.2 | 7.66 | 5.80
C=CC(=O)Nc1cc(Nc2cc(-c3ccc4c(cnn4C)c3)ncn2)c(OC)cc1N1CCN(CCN(C)C)CC1 [compound 59] | 8.00 | – | 8.05 | 5.90
C=CC(=O)Nc1cc(Nc2cc(-c3ccc4c(cnn4C)c3)ncn2)c(OCC)cc1N(C)C1CCN(C)C1 (stereo not drawn) [compound 66] | 8.09 | 96.2 | 8.07 | 6.11
C=CC(=O)Nc1cc(Nc2cc(-c3ccc4cnn(C)c4c3)ncn2)c(OC)cc1N1CCN(CC)[C@@H](C)C1 [compound 48] | 7.17 | 20.7 | 7.30 | 5.86
C=CC(=O)Nc1cc(Nc2cc(-c3ccc4c(cnn4CC)c3)ncn2)c(OC)cc1N(C)CCN1CCN(C)CC1 [compound 118] | 7.70 | 53.2 | 7.63 | 5.98
C=CC(=O)Nc1cc(Nc2cc(-c3ccc4nc(C)sc4c3)ncn2)c(OC)cc1N1CCN(CCN(C)C)CC1 [compound 190] | 6.97 | 19.3 | 7.61 | 5.68
C=CC(=O)Nc1cc(Nc2cc(-c3ccc4cnn(C)c4c3)ncn2)c(OC)cc1OCCN(C)C(C)C [compound 188] | 6.94 | 24.5 | 7.25 | 5.55
C=CC(=O)Nc1cc(Nc2cc(-c3ccc4cnn(C)c4c3)ncn2)c(OC)cc1N(C)C1CCN(CCOC)C1 (stereo not drawn) [compound 223] | 7.39 | 57.4 | 7.39 | 5.63
C=CC(=O)Nc1cc(Nc2cc(-c3ccc4c(cnn4C)c3)ncn2)c(OC)cc1N(C)C1CCN(C(C)C)CC1 [compound 142] | 7.61 | 39.5 | 7.49 | 6.01
C=CC(=O)Nc1cc(Nc2cc(-c3ccc4cnn(C)c4c3)ncn2)c(OC)cc1N1CCC(C2CCOCC2)CC1 [compound 209] | 7.61 | 65.7 | 7.92 | 5.79
